Experimental data published in patent US20060141024A1, “Synergistic combination kit of alpha,beta-arteether, sulfadoxin and pyrimethamine for treatment of severe/multi-drug resistant cerebral malaria” (COUNCIL OF SIENTIFIC AND INDUSTRIAL RESEARCH, priority 2004, published 2006).
Where two headings read alike, the source gives them in different places.

Tests used:
[1] = im, swiss mice; cited from earlier work
cerebral malaria = conditions: comatose cerebral malaria cases; quinine intravenous; cited from earlier work
uncomplicated malaria = conditions: cited from earlier work
P. falciparum [2] = conditions: cited from earlier work
[3] = system: multi drug resistant P. yoelii nigeriensis; experiment: Arteether (im, x3) and Fansidar (oral, x1) in combination against multi drug resistant P. yoelii nigeriensis infection in Swiss mice; type: in vivo, Plasmodium yoelii nigeriensis
Protocol: Experimental: Swiss mice (20±2 g) were inoculated intra peritoneal with 1×10^6 Plasmodium yoelii nigeriensis (malaria parasite) infected mouse red blood cells. Fansidar was suspended in tween 80 and then in triple distilled water and two different doses, i.e. 1.25-2.5 mg/kg were administered in previously infected Swiss mice. Fansidar was administered by oral route for only 1 day. α/β Arteether was dissolved in neutralized and sterilized ground nut oil and doses i.e. 1.25, 1.78 and 2.5mg/kg were administered by intramuscular route for 3 days. In other groups of infected mice these drugs were given individually for comparison. 2.5, 1.78 and 1.25 mg/kg and α/β arteether were given in combinations with 2.5 and 1.25 mg/kg Fansidar. One group of mice was kept as infected control. After treatment parasitaemia was recorded from tail blood smears of individual mouse. (Table-1)

[4] = system: multi drug resistant P. yoelii nigeriensis; experiment: Shorter regimen of α/β arteether (im) and Fansidar (oral) against multi drug resistant P. yoelii nigeriensis in Swiss mice; type: in vivo, Plasmodium yoelii nigeriensis
Protocol: Experimental: Swiss mice (20±2 g) were inoculated intra peritoneal with 1×10^6 Plasmodium yoelii nigeriensis (malaria parasite) infected mouse red blood cells. Faosidar was suspended in tween 80 and then in triple distilled water and 2.5 mg/kg dose was administered in previously infected Swiss mice. Fansidar was administered by oral route for only 1 day i.e. on day 0 or day 1. α/β Arteether was dissolved in neutralized and sterilized ground nut oil and doses i.e. 7.5 mg/kg×1, ×2, 5 mg/kg×1, ×2 by intramuscular route were given in combination with 2.5 mg/kg ×1 dose of Fansidar. These doses of both the drugs were given individually for comparison. One group of mice was kept as infected control. After treatment parasitaemia was recorded from tail blood smears of individual mouse.

[5] = system: multi drug resistant P. yoelii nigeriensis; experiment: Variable regimen of α/β arteether (oral, in oil) and Fansidar (oral) against multi drug resistant P. yoelii nigeriensis in Swiss mice; type: in vivo, Plasmodium yoelii nigeriensis
Protocol: Experimental: Swiss mice (20±2 g) were inoculated intra peritoneal with 1×10^6 Plasmodium yoelii nigeriensis (malaria parasite) infected mouse red blood cells. Fansidar was suspended in tween 80 and then in triple distilled water and different doses i.e., 5, 2.5 and 1.25 mg/kg were admimstered in previously infected Swiss mice. Fansidar was administered by oral route for only 1 day i.e. on day 0. α/β Arteether was dissolved in neutralized and sterilized ground nut oil and doses i.e. 25 mg/kg×1 ×4, 12.5mg/kg×4 were given orally in combination with 5.0, 2.5 and 1.25 mg/kg ×1 dose of Fansidar. These doses of both the drugs were given individually for comparison. One group of mice was kept as infected control. After treatment parasitaemia was recorded from tail blood smears of individual mouse and their mean parasitaemia was calculated.

[6] = system: multi drug resistant P. yoelii nigeriensis; experiment: α/β arteether (oral, aqueous) and Fansidar (oral) against multi drug resistant P. yoelii nigeriensis in Swiss mice; type: in vivo, Plasmodium yoelii nigeriensis
Protocol: Experimental: Swiss mice (20±2 g) were inoculated intra peritoneal with 1×10^6 Plasmodium yoelii nigeriensis (malaria parasite) infected mouse red blood cells. Fansidar was suspended in tween 80 and then in triple distilled water and different doses i.e. 2.5 and 1.25 mg/kg were administered in previously infected Swiss mice. Fansidar was administered by oral route for only 1 day i.e. on day 0 α/β Arteether was dissolved in tween 80 and triple distilled water and doses i.e. 24 and 12 and 6 mg/kg×4 were given orally in combination with 2.5 and 1.25 mg/kg ×1 dose of Fansidar. These doses of both the drugs were also given individually for comparison. One group of mice was kept as infected control. After treatment parasitaemia was recorded from tail blood smears of individual mouse and their mean parasitaemia was calculated.

P. yoelii nigeriensis = experiment: Curative dose against P. yoelii nigeriensis in swiss mice; type: in vivo, Plasmodium yoelii nigeriensis; conditions: for three days (x3), intramuscular
Protocol: The curative dose of α,β arteether against P. yoelii nigeriensis in gwiss mice (a murine model equivalent to P. falciparum in human) is 7.5 mg/kg for three days. Sulfadoxin/pyrimethtnine combination is usually given for P. falciparum infection, to adult humans as a single dose of 1500 mg sulfadoxin and 75 mg pyremethamine (usually in 3 tablets of 500 mg sulfadoxin and 25 mg pyremethamine) (practical chemotherapy of malaria, WHO, Geneva 1990). For children if they are below 40 kg, only 2 tablets are recommended. […] Although resistance to Fansidar is documented in expatriates in East Africa (Schapira et al. 1986), the drug is reported to be generally effective in the indigenous population (Spencer et al. 1984) and it is treated as second line of drug and is the only affordable drug for chloroquine resistant cases in developing countries. In combination the proposed doses of α,β arteether plus sulfadoxin and pyrimethamine for humans would be 150 mg×3 (im injections) or 450-750 mg×5 (oral dose) of α,β arteether with three tablets of 500 mg sulfadoxin and 25 mg of pyrimethamine for P. falciparum. The proposed combination therapy will certainly reduce the incidence of recrudescence and new infection in high transmission areas.

P. falciparum [7] = conditions: arteether 150 mg i.m. daily for three days, uncomplicated P. falciparum malaria, cited from earlier work
P. falciparum [8] = conditions: 211 patients of complicated P. falciparum malaria; cited from earlier work
[9] = arteether 1.25 mg/kg x3 im alone
[10] = arteether 1.78 mg/kg x3 im alone
[11] = arteether 2.5 mg/kg x3 im alone
[12] = arteether 5.0 mg/kg x1 (day 0) im alone
[13] = arteether 5.0 mg/kg x2 (days 0, 1) im alone
[14] = arteether 7.5 mg/kg x1 (day 0) im alone
[15] = arteether 7.5 mg/kg x2 (days 0, 1) im alone
[16] = arteether 12.5 mg/kg x4 oral (in oil) alone
[17] = arteether 25.0 mg/kg x4 oral (in oil) alone
[18] = arteether 6 mg/kg x4 oral (aqueous) alone
[19] = arteether 12 mg/kg x4 oral (aqueous) alone
[20] = arteether 24 mg/kg x4 oral (aqueous) alone

CO[C@H]1O[C@@H]2O[C@@]3(C)CC[C@H]4[C@H](C)CC[C@@H]([C@H]1C)[C@@]24OO3 [artemether]
LD50 [1]: 263 mg/kg

C[C@@H]1CC[C@H]2[C@@H](C)C(=O)O[C@@H]3O[C@@]4(C)CC[C@@H]1[C@]32OO4 [artemisiain, artemisinin]
reduction in parasitaemia (time) (cerebral malaria): 16 h | recrudescence (uncomplicated malaria; 20 mg/kg x3 days): 38% | recrudescence (uncomplicated malaria; 20 mg/kg x5 days): 15%

C[C@H]1[C@H](OC(=O)CCC(=O)O)O[C@@H]2O[C@@]3(C)CC[C@H]4[C@H](C)CC[C@@H]1[C@@]24OO3 [artesunate]
LD50 [1]: 475 mg/kg

C=C[C@H]1C[N@@]2CC[C@H]1C[C@H]2[C@H](O)c1ccnc2ccc(OC)cc12 [quinine]
reduction in parasitaemia (time) (cerebral malaria): 34.5 h | recrudescence (uncomplicated malaria; 10 mg/kg x7 days): 16%

COc1ncnc(NS(=O)(=O)c2ccc(N)cc2)c1OC [sulfadoxin]
concentration giving 100% inhibition in vitro (P. falciparum [2]): < 5.0 mmol/lit

CCO[C@H]1O[C@@H]2O[C@@]3(C)CC[C@H]4[C@H](C)CC[C@@H]([C@H]1C)[C@@]24OO3 [α/β arteether, α,β-Arteether]
Cure rate (%) [3, 9]: 0.0% | Day 4 mice negative/total [3, 9]: 3/6 | Day 7 mice negative/total [3, 9]: 0/6 | Cure rate (%) [3, 10]: 16.6% | Day 4 mice negative/total [3, 10]: 6/6 | Day 7 mice negative/total [3, 10]: 5/6 | Day 14 mice negative/total [3, 10]: 2/2 | Day 18 mice negative/total [3, 10]: 1/2 | Day 21 mice negative/total [3, 10]: 1/2 | Day 28 mice negative/total [3, 10]: 1/1 | Cure rate (%) [3, 11]: 66.6% | Day 4 mice negative/total [3, 11]: 6/6 | Day 7 mice negative/total [3, 11]: 6/6 | Day 14 mice negative/total [3, 11]: 4/4 | Day 18 mice negative/total [3, 11]: 4/4 | Day 21 mice negative/total [3, 11]: 4/4 | Day 28 mice negative/total [3, 11]: 4/4 | Cure rate (%) [4, 12]: 0.0% | Day 4 mice negative/total [4, 12]: 6/6 | Day 7 mice negative/total [4, 12]: 2/6 | Day 10 mice negative/total [4, 12]: 0/4 | Cure rate (%) [4, 13]: 83.3% | Day 4 mice negative/total [4, 13]: 6/6 | Day 7 mice negative/total [4, 13]: 6/6 | Day 10 mice negative/total [4, 13]: 6/6 | Day 14 mice negative/total [4, 13]: 6/6 | Day 21 mice negative/total [4, 13]: 5/5 | Day 28 mice negative/total [4, 13]: 5/5 | Cure rate (%) [4, 14]: 83.3% | Day 4 mice negative/total [4, 14]: 6/6 | Day 7 mice negative/total [4, 14]: 6/6 | Day 10 mice negative/total [4, 14]: 6/6 | Day 14 mice negative/total [4, 14]: 6/6 | Day 21 mice negative/total [4, 14]: 5/5 | Day 28 mice negative/total [4, 14]: 5/5 | Cure rate (%) [4, 15]: 100% | Day 4 mice negative/total [4, 15]: 6/6 | Day 7 mice negative/total [4, 15]: 6/6 | Day 10 mice negative/total [4, 15]: 6/6 | Day 14 mice negative/total [4, 15]: 6/6 | Day 21 mice negative/total [4, 15]: 6/6 | Day 28 mice negative/total [4, 15]: 6/6 | % Cure rate [5, 16]: 28.5% | Mice remained negative on day 4 [5, 16]: 5/7 | Mice remained negative on day 7 [5, 16]: 3/7 | Mice remained negative on day 14 [5, 16]: 2/2 | Mice remained negative on day 21 [5, 16]: 2/2 | Mice remained negative on day 28 [5, 16]: 2/2 | % Cure rate [5, 17]: 57.1% | Mice remained negative on day 4 [5, 17]: 7/7 | Mice remained negative on day 7 [5, 17]: 7/7 | Mice remained negative on day 14 [5, 17]: 4/4 | Mice remained negative on day 21 [5, 17]: 4/4 | Mice remained negative on day 28 [5, 17]: 4/4 | % Cure rate [6, 18]: 0.0% | Mice remained negative on day 4 [6, 18]: 5/7 | Mice remained negative on day 7 [6, 18]: 0/3 | % Cure rate [6, 19]: 0.0% | Mice remained negative on day 4 [6, 19]: 3/7 | Mice remained negative on day 7 [6, 19]: 0/5 | % Cure rate [6, 20]: 14.28% | Mice remained negative on day 4 [6, 20]: 7/7 | Mice remained negative on day 7 [6, 20]: 3/6 | Mice remained negative on day 14 [6, 20]: 1/3 | Mice remained negative on day 21 [6, 20]: 1/2 | Mice remained negative on day 28 [6, 20]: 1/1 | curative dose with oral formulation (calculated) ([6]; x4, oral, aqueous (tween 80/water)): 72 mg/kg | curative dose (P. yoelii nigeriensis): 7.5 mg/kg | LD50 [1]: 1250 mg/kg | cure rate (P. falciparum [7]; 267 patients): 97% | fever clearance time (P. falciparum [7]): 1 to 7 days | parasite clearance time (P. falciparum [7]): 1 to 3 days | fever clearance time (P. falciparum [8]): 24 to 168 h | overall cure rate (P. falciparum [8]): 93%
